Experimental data from patent publication US11000033B2, “Ketone or oxime compound, and herbicide” (NISSAN CHEMICAL CORPORATION, priority 2014, dated 2021).

Legend:
Format in all cases: in vivo
Apera spica-venti = assay: Test Example 5: herbicidal effect by foliage application, plastic box (symbol L); conditions: 320 g/ha, 3 weeks after application
Summary of the method: (§1)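 Herbicide, formulated as an emulsion and diluted in water, is sprayed onto the aerial parts of 14-day seedlings. These were grown at 25° C. to 30° C. in sterilized diluvial soil; effects are graded after 3 weeks.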

[1] = system: directly sowed rice plant; assay: Test Example 3: effect on crop by foliage application, Wagner pot (symbol b); conditions: application herbicide amount 320 g/ha
Summary of the method: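 Greenhouse culture at 25–30 °C of seeded rice, Cyperus difformis, Leptochloa chinensis and Echinochloa crus-galli var. crus-galli, in alluvial soil held under 0.1–0.5 cm of water in a Wagner pot.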

Abutilon theophrasti = assay: Test Example 5: herbicidal effect by foliage application, plastic box (symbol M); conditions: 320 g/ha, 3 weeks after application
Summary of the method: as §1

Avena fatua = assay: Test Example 4: herbicidal effect by soil treatment (symbol I); conditions: application herbicide amount 320 g/ha
Summary of the method: (§2)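 Seeds were sown in sterilized diluvial soil, covered with about 1.5 cm of soil, and the soil surface was sprayed with a water-diluted emulsion of the compound at a predetermined rate. Plants grew in a greenhouse at 25° C. to 30° C.; effects were scored visually 3 weeks after application.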

rapeseed = assay: Test Example 5: effect on crop by foliage application, plastic box (symbol g); conditions: 320 g/ha, 3 weeks after application
Summary of the method: (§3)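 Soil: sterilized diluvial. Container: plastic box, 21 × 13 cm, 7 cm deep. Sowing: spot-like, ~1.5 cm cover. Growth: greenhouse, 25° C. to 30° C.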

Monochoria vaginalis [2] = assay: Test Example 1: herbicidal activity, application before weed generation in submerged conditions (symbol C); conditions: application herbicide amount 320 g/ha
Summary of the method: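 Steps: alluvial soil flooded to 4 cm; weed seeds sown together; rice seedlings (2.5 leaf) transplanted; diluted emulsion applied to water surface the same day as sowing; plants grown at 25–30 °C in greenhouse; herbicidal effect rated on a 0–5 scale at 3 weeks.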

corn = assay: Test Example 5: effect on crop by foliage application, plastic box (symbol c); conditions: 320 g/ha, 3 weeks after application
Summary of the method: as §3

[3] = system: Echinochloa crus-galli var. crus-galli; assay: Test Example 5: herbicidal effect by foliage application, plastic box (symbol H); conditions: 320 g/ha, 3 weeks after application
Summary of the method: as §1

soybean = assay: Test Example 5: effect on crop by foliage application, plastic box (symbol d); conditions: 320 g/ha, 3 weeks after application
Summary of the method: as §3

Monochoria vaginalis [4] = assay: Test Example 2: herbicidal activity, application during weed generation in submerged conditions (symbol C); conditions: Table 23; application herbicide amount 320 g/ha; grade 0-5 by criteria of Test Example 1
Summary of the method: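 Visual herbicidal ratings, taken three weeks after dosing, reflect post-emergence water-surface application to seedlings at one to two leaves. Conditions: co-sown weeds in alluvial soil flooded to 4 cm, greenhouse held at 25° C. to 30° C.; compound given as water-diluted emulsion at a fixed herbicide amount.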

Setaria viridis = assay: Test Example 4: herbicidal effect by soil treatment (symbol G); conditions: application herbicide amount 320 g/ha
Summary of the method: as §2

beet = assay: Test Example 4: effect on crop by soil treatment (symbol f); conditions: application herbicide amount 320 g/ha
Summary of the method: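 Crop seed is sown in spots together with several weed species in a box of sterilized diluvial soil. It is covered by about 1.5 cm of soil and kept in a greenhouse held between 25° C. and 30° C.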

Veronica persica = assay: Test Example 4: herbicidal effect by soil treatment (symbol R); conditions: application herbicide amount 320 g/ha
Summary of the method: as §2

| Structure (SMILES) | L: Apera spica-venti, herbicidal effect grade (Apera spica-venti) | effect on crop b (directly sowed rice plant), grade 0-5 [1] | M: Abutilon theophrasti, herbicidal effect grade (Abutilon theophrasti) | I: Avena fatua, herbicidal effect grade (Avena fatua) | g: rapeseed, effect on crop grade (rapeseed) | Herbicidal effect grade, C: Monochoria vaginalis (Monochoria vaginalis [2]) | c: corn, effect on crop grade (corn) | H: Echinochloa crus-galli var. crus-galli, herbicidal effect grade [3] | d: soybean, effect on crop grade (soybean) | Herbicidal effect grade, C: Monochoria vaginalis (Monochoria vaginalis [4]) | G: Setaria viridis, herbicidal effect grade (Setaria viridis) | f: beet, effect on crop grade (beet) | I (Avena fatua) herbicidal effect grade (Avena fatua) | G (Setaria viridis) herbicidal effect grade (Setaria viridis) | f (beet) effect on crop grade (beet) | R: Veronica persica, herbicidal effect grade (Veronica persica) |
| --- | --- | --- | --- | --- | --- | --- | --- | --- | --- | --- | --- | --- | --- | --- | --- | --- |
| CON=C(C)CC1CC(O)=C(c2c(C)cc(C#CC3CC3)cc2C)C1=O (mixture of isomers) [6-010] | 5 (Herbicidal ratio of 90% or more (almost completely withered)) | 5 (Herbicidal ratio of 90% or more (almost completely withered)) | 0 (Herbicidal ratio of 5% or lower (almost no effect)) | 3 (Herbicidal ratio of 40% or higher and lower than 70%) | 0 (Herbicidal ratio of 5% or lower (almost no effect)) | 1 (Herbicidal ratio of 5% or higher and lower than 20%) | 4 (Herbicidal ratio of 70% or higher and lower than 90%) | 5 (Herbicidal ratio of 90% or more (almost completely withered)) | 3 (Herbicidal ratio of 40% or higher and lower than 70%) | 0 (Herbicidal ratio of 5% or lower (almost no effect)) | 5 (Herbicidal ratio of 90% or more (almost completely withered)) | 0 (Herbicidal ratio of 5% or lower (almost no effect)) |  |  |  |  |
| CON=C(C)CC1CC(OCCSC)=C(c2c(C)cc(C)cc2C)C1=O (centres unmarked) [1-011] | 5 (Herbicidal ratio of 90% or more (almost completely withered)) | 0 (Herbicidal ratio of 5% or lower (almost no effect)) | 0 (Herbicidal ratio of 5% or lower (almost no effect)) |  | 4 (Herbicidal ratio of 70% or higher and lower than 90%) | 0 (Herbicidal ratio of 5% or lower (almost no effect)) | 0 (Herbicidal ratio of 5% or lower (almost no effect)) | 0 (Herbicidal ratio of 5% or lower (almost no effect)) | 0 (Herbicidal ratio of 5% or lower (almost no effect)) | 0 (Herbicidal ratio of 5% or lower (almost no effect)) |  |  | 0 (Herbicidal ratio of 5% or lower (almost no effect)) | 0 (Herbicidal ratio of 5% or lower (almost no effect)) | 0 (Herbicidal ratio of 5% or lower (almost no effect)) |  |
| CON=C(C)CC1CC(OCC(=O)OC)=C(c2c(C)cc(C)cc2C)C1=O (centres unmarked) [1-012] | 0 (Herbicidal ratio of 5% or lower (almost no effect)) | 0 (Herbicidal ratio of 5% or lower (almost no effect)) | 0 (Herbicidal ratio of 5% or lower (almost no effect)) |  | 0 (Herbicidal ratio of 5% or lower (almost no effect)) | 0 (Herbicidal ratio of 5% or lower (almost no effect)) | 0 (Herbicidal ratio of 5% or lower (almost no effect)) | 0 (Herbicidal ratio of 5% or lower (almost no effect)) | 0 (Herbicidal ratio of 5% or lower (almost no effect)) | 0 (Herbicidal ratio of 5% or lower (almost no effect)) |  |  | 0 (Herbicidal ratio of 5% or lower (almost no effect)) | 0 (Herbicidal ratio of 5% or lower (almost no effect)) | 0 (Herbicidal ratio of 5% or lower (almost no effect)) |  |
| CON=C(C)CC1CC(OCC#N)=C(c2c(C)cc(C)cc2C)C1=O (centres unmarked) [1-013] | 4 (Herbicidal ratio of 70% or higher and lower than 90%) | 0 (Herbicidal ratio of 5% or lower (almost no effect)) | 0 (Herbicidal ratio of 5% or lower (almost no effect)) |  | 4 (Herbicidal ratio of 70% or higher and lower than 90%) | 0 (Herbicidal ratio of 5% or lower (almost no effect)) | 0 (Herbicidal ratio of 5% or lower (almost no effect)) | 0 (Herbicidal ratio of 5% or lower (almost no effect)) | 0 (Herbicidal ratio of 5% or lower (almost no effect)) | 0 (Herbicidal ratio of 5% or lower (almost no effect)) |  |  | 0 (Herbicidal ratio of 5% or lower (almost no effect)) | 0 (Herbicidal ratio of 5% or lower (almost no effect)) | 0 (Herbicidal ratio of 5% or lower (almost no effect)) |  |
| CON=C(C)CC1CC(O)=C(c2c(C)cc(C(=O)OC)cc2C)C1=O (centres unmarked) [6-023] | 4 (Herbicidal ratio of 70% or higher and lower than 90%) | 5 (Herbicidal ratio of 90% or more (almost completely withered)) | 0 (Herbicidal ratio of 5% or lower (almost no effect)) | 0 (Herbicidal ratio of 5% or lower (almost no effect)) | 3 (Herbicidal ratio of 40% or higher and lower than 70%) | 0 (Herbicidal ratio of 5% or lower (almost no effect)) | 3 (Herbicidal ratio of 40% or higher and lower than 70%) | 5 (Herbicidal ratio of 90% or more (almost completely withered)) | 0 (Herbicidal ratio of 5% or lower (almost no effect)) |  | 3 (Herbicidal ratio of 40% or higher and lower than 70%) |  |  |  |  | 0 (Herbicidal ratio of 5% or lower (almost no effect)) |
